Data taken from publication PMC6013482, “Conformational switching of the pseudokinase domain promotes human MLKL tetramerization and cell death by necroptosis” (Nature Communications, 2018).
Residue numbers refer to the chain shown, from its start.

Experiments:
Format in all cases: binding
MLKL [1] = molecular target: T1, MLKL (Homo sapiens, UniProt Q8NB16, K157A); experiment: thermal shift assay with ATP titration
T1 construct: full-length hMLKL(2–471)
T1 sequence (Q8NB16 2-471 K157A): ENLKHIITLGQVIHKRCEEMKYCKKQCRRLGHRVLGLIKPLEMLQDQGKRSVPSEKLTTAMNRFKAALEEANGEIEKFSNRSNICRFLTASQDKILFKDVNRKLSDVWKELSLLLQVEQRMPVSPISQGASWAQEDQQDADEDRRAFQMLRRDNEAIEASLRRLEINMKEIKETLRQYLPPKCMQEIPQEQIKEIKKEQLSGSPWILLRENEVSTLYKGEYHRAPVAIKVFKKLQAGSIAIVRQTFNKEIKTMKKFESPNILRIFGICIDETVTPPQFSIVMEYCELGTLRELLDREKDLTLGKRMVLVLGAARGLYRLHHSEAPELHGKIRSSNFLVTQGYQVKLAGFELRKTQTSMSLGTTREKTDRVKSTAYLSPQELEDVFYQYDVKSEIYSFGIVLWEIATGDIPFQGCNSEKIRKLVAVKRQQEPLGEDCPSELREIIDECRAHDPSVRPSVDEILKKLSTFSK

MLKL [2] = molecular target: T2, MLKL (Homo sapiens, UniProt Q8NB16, D107A/E111A); experiment: thermal shift assay with ATP titration
T2 construct: full-length hMLKL(2–471)
T2 sequence (Q8NB16 2-471 D107A/E111A): T1 sequence (Q8NB16 2-471 K157A) with D106A, E110A, A156K

MLKL [3] = molecular target: T3, MLKL (Homo sapiens, UniProt Q8NB16, E258K); experiment: thermal shift assay with ATP titration
T3 construct: full-length hMLKL(2–471)
T3 sequence (Q8NB16 2-471 E258K): T1 sequence (Q8NB16 2-471 K157A) with A156K, E257K

MLKL [4] = molecular target: T4, MLKL (Homo sapiens, UniProt Q8NB16); experiment: thermal shift assay (SYPRO Orange) with ATP titration, no divalent cations; supported by AUC
T4 construct: full-length hMLKL(2–471)
T4 sequence (Q8NB16 2-471): T1 sequence (Q8NB16 2-471 K157A) with A156K

MLKL [5] = molecular target: T5, MLKL (Homo sapiens, UniProt Q8NB16, G330E); experiment: thermal shift assay with ATP titration
T5 construct: full-length hMLKL(2–471)
T5 sequence (Q8NB16 2-471 G330E): T1 sequence (Q8NB16 2-471 K157A) with A156K, G329E

MLKL [6] = molecular target: T6, MLKL (Homo sapiens, UniProt Q8NB16, S358E/T357E); experiment: thermal shift assay with ATP titration
T6 construct: full-length hMLKL(2–471)
T6 sequence (Q8NB16 2-471 T357E/S358E): T1 sequence (Q8NB16 2-471 K157A) with A156K, T356E, S357E

MLKL [7] = molecular target: T7, MLKL (Homo sapiens, UniProt Q8NB16, E351K); experiment: thermal shift assay with ATP titration; HDX-MS protection around the ATP pocket
T7 construct: full-length hMLKL(2–471)
T7 sequence (Q8NB16 2-471 E351K): T1 sequence (Q8NB16 2-471 K157A) with A156K, E350K

Nc1ncnc2c1ncn2[C@@H]1O[C@H](COP(=O)(O)OP(=O)(O)OP(=O)(O)O)[C@@H](O)[C@H]1O [ATP]
Kd (MLKL [1]): 164 ± 31 µM
Kd (MLKL [2]): 23 ± 2 µM
Kd (MLKL [3]): 24 ± 2 µM
Kd (MLKL [4]): 36 ± 4 µM
Kd (MLKL [5]): 28 ± 6 µM
Kd (MLKL [6]): 56 ± 8 µM
Kd (MLKL [7]): 26 ± 6 µM
